Test results published in patent publication US20180256673A1, “METHODS FOR TREATING FUNGAL INFECTIONS” (priority 2015, published 2018).
In brackets after ≈: the same amount, converted by molar mass. Like-named read-outs stand apart in the source and are kept apart here. Starred links: 1 amine or outer side, 2 acyl side, 3 side chain; linkers in the order of their positions; H or OH if unused. Positions of bridges follow the written chain, without caps; N, C: chain ends. Non-standard residues stand in square brackets, D forms with d. Residues, ends and D or L forms follow the SMILES beside them. *: point of attachment. hTyr(3S-OH,4S-OH,3'-OSO3H) = N[C@H](C(=O)O)[C@H](O)[C@@H](O)c1ccc(O)c(OS(=O)(=O)O)c1; Orn(4R-OH,5R-OH) = O=C([C@H](C[C@@H](O)[C@@H](O)N[*:3])N[*:1])[*:2]; Pro(3S-OH,4S-Me) = C[C@H]1CN[C@H](C(=O)O)[C@H]1O; X1 = CCCCCOc1ccc(-c2cc(-c3ccc(C(=O)*)cc3)no2)cc1; Gln(3R-OH) = NC(=O)C[C@@H](O)[C@H](N)C(=O)O; Hyp = O=C(O)[C@@H]1C[C@@H](O)CN1

Columns and labels:
Candida albicans = test: Broth microdilution of invasive fungal isolates (CLSI M27-A3/M38-A2); assay type: cell-based
Candida glabrata = test: microbe, parasite or virus in culture; assay type: cell-based
Candida tropicalis = test: Broth microdilution of invasive fungal isolates (CLSI M27-A3/M38-A2); assay type: cell-based
Candida orthopsilosis = test: as above; assay type: cell-based
[1] = system: Cryptococcus neoformans var. grubii; test: as above; assay type: cell-based
Aspergillus fumigatus = test: Broth microdilution of invasive fungal isolates (CLSI M27-A3/M38-A2), MEC; assay type: cell-based; details: 56 isolates
[2] = target: 1,3-β-D-glucan synthase from C. albicans (Candida albicans, UniProt O13428); test: Glucan synthase (GS) inhibition assay
[3] = target: 1,3-β-D-glucan synthase from C. albicans (Candida albicans, UniProt O13428, F641S); test: Glucan synthase (GS) inhibition assay; details: IC50, DPL18; Fks1 F641S
Chain of 1,3-β-D-glucan synthase from C. albicans (Candida albicans, UniProt O13428, F641S) (O13428 entry or part of it F641S): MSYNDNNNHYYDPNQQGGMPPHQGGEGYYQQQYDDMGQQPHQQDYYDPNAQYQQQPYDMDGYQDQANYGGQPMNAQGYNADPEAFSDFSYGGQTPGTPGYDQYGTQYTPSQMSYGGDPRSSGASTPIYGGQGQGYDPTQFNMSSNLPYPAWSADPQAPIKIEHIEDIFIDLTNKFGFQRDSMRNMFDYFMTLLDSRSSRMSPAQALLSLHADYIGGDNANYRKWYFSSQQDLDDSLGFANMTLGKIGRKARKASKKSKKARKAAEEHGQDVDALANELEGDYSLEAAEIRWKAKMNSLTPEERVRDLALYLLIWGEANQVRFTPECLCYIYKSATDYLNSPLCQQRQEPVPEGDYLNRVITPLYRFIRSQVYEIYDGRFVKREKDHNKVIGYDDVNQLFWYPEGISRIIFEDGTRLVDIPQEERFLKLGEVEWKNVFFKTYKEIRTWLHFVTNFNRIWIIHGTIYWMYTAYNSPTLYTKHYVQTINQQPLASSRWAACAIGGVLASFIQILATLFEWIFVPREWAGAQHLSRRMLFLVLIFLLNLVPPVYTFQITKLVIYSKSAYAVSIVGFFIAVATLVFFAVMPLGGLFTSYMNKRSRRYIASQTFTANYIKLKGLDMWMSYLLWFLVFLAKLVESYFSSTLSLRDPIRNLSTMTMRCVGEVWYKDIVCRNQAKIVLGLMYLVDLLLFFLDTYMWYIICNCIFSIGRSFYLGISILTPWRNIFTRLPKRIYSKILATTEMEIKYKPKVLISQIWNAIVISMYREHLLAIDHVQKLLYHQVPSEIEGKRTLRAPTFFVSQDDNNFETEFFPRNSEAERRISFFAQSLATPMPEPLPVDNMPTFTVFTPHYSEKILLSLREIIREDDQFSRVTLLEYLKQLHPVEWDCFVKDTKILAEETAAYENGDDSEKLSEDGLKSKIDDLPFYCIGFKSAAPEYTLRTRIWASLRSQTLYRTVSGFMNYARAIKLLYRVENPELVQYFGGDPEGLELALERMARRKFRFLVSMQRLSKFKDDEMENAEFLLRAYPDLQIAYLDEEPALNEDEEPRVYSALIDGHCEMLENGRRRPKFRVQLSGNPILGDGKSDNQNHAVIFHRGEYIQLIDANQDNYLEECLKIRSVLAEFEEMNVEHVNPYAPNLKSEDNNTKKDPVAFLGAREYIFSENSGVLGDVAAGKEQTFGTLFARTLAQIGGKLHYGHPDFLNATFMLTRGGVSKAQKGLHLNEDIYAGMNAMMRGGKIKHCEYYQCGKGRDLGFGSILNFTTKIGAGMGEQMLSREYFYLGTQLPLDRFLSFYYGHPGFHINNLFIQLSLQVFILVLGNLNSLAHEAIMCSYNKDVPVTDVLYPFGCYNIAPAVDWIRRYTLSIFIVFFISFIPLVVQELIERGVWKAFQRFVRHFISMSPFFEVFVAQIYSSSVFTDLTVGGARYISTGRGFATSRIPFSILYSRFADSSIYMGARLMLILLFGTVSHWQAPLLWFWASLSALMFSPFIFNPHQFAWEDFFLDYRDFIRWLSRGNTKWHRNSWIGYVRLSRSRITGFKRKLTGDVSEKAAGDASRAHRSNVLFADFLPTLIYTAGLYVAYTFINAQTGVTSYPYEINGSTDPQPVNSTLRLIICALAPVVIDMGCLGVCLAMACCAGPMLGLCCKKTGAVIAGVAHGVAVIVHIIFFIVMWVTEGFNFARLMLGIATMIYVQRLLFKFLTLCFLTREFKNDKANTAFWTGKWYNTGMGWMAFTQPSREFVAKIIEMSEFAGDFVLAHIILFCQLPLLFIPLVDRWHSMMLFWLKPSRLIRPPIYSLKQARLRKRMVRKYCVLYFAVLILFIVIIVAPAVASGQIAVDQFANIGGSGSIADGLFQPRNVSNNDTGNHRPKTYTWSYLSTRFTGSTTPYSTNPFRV

[4] = target: 1,3-β-D-glucan synthase from C. albicans (Candida albicans, UniProt O13428, S645P); test: Glucan synthase (GS) inhibition assay; details: IC50, DPL20; Fks1 S645P
Chain of 1,3-β-D-glucan synthase from C. albicans (Candida albicans, UniProt O13428, S645P) (O13428 entry or part of it S645P): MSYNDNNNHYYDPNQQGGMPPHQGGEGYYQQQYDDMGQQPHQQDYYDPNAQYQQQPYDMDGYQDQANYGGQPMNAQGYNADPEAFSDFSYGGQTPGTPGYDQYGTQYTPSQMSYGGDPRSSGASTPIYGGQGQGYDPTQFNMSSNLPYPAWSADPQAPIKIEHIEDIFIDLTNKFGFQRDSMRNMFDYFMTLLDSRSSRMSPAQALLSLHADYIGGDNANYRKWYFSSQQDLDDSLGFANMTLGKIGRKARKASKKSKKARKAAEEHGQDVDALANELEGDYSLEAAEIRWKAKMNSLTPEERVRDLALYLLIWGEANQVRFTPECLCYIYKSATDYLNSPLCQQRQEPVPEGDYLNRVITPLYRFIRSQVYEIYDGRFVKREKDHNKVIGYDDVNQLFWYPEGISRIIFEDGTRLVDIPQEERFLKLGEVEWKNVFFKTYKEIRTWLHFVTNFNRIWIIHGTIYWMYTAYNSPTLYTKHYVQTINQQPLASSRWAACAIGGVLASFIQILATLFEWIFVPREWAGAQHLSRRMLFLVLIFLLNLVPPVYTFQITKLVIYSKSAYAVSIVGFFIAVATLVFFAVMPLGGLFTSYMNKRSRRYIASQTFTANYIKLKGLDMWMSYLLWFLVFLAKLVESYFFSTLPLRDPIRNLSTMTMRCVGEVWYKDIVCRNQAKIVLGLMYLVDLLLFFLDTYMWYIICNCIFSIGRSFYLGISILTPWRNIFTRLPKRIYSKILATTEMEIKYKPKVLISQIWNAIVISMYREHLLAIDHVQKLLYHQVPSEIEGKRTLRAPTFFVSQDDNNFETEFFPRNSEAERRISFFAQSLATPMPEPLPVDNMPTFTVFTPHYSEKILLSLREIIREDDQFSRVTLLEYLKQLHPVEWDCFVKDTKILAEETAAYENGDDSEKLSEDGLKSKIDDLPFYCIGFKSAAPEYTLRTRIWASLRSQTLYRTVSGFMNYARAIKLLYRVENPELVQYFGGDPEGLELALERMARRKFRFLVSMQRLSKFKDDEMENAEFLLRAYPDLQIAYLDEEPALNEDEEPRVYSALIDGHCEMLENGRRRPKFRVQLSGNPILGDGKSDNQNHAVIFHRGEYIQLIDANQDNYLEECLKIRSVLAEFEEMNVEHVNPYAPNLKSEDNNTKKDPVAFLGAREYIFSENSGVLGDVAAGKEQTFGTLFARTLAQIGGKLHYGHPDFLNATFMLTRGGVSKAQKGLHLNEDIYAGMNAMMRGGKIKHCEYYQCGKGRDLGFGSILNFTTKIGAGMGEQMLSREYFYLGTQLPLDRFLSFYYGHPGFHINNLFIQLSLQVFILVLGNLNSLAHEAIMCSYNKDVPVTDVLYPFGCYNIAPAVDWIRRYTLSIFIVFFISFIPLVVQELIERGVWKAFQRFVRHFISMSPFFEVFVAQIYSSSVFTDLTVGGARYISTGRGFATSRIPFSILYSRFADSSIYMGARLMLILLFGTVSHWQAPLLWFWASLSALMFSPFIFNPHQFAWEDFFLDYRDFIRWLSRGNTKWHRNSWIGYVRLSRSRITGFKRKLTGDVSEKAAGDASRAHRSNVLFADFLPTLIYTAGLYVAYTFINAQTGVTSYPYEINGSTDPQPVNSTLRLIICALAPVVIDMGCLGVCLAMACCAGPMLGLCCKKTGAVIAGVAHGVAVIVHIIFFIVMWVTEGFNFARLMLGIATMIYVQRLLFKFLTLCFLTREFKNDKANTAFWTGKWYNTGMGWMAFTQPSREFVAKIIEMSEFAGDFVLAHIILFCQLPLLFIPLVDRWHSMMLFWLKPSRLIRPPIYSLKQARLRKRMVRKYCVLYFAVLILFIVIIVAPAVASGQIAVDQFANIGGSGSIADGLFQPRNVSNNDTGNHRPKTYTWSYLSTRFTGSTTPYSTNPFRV

[5] = system: 1,3-β-D-glucan synthase from C. glabrata; test: Glucan synthase (GS) inhibition assay
C. tropicalis = test: Antifungal susceptibility testing (CLSI M27-S4), WT and echinocandin-resistant isolates; details: 24 hr
Description: Antifungal susceptibility testing. Antifungal susceptibility testing was performed in triplicate for a collection of 95 Candida strains (20 C. albicans, 20 C. glabrata, 2 C. dubliniensis, 15 C. krusei, 19 C. parapsilosis, and 19 C. tropicalis) that included 30 isolates showing an echinocandin resistance (ER) phenotype (caspofungin-resistant) in accordance with the guidelines described in the Clinical and Laboratory Standards Institute (CLSI) document M27-S4. […] Stock solutions of the drugs were kept at −86° C.

In the case of `CCCCCOc1ccc(-c2cc(-c3ccc(C(=O)N[C@H]4C[C@@H](O)[C@@H](O)NC(=O)[C@@H]5[C@@H](O)[C@@H](C)CN5C(=O)[C@H]([C@H](O)CC(N)=O)NC(=O)[C@H]([C@H](O)[C@@H](O)c5ccc(O)c(OS(=O)(=O)O)c5)NC(=O)[C@@H]5C[C@@H](O)CN5C(=O)[C@H]([C@@H](C)O)NC4=O)cc3)no2)cc1` [MCF, micafungin] (X1-[Orn(4R-OH,5R-OH)]T[Hyp][hTyr(3S-OH,4S-OH,3'-OSO3H)][Gln(3R-OH)][Pro(3S-OH,4S-Me)]; lactam 1-C), the “Cumulative % of isolates inhibited at MIC 0.015 μg/mL” value (Candida albicans; 251 isolates) is reported as “(74.9) %”, the “Cumulative % of isolates inhibited at MIC 0.03 μg/mL” value (Candida albicans; 251 isolates) is reported as “(100.0) %” and the “Cumulative % of isolates inhibited at MIC ≤0.008 μg/mL” value (Candida albicans; 251 isolates) is reported as “(6.8) %”. The “Number of isolates inhibited at MIC 0.015 μg/mL” value (Candida albicans; 251 isolates) was 171, the “Number of isolates inhibited at MIC 0.03 μg/mL” value (Candida albicans; 251 isolates) was 63 and the “Number of isolates inhibited at MIC ≤0.008 μg/mL” value (Candida albicans; 251 isolates) was 17. The MIC50 (Candida albicans; Candida albicans) was 0.015 µg/mL (≈ 0.0118 µM), the MIC90 (Candida albicans; Candida albicans) was 0.03 µg/mL (≈ 0.0236 µM) and the “Cumulative % of isolates inhibited at MIC 0.015 μg/mL” value (Candida glabrata) was “(74.0) %”. The “Cumulative % of isolates inhibited at MIC 0.03 μg/mL” value (Candida glabrata) was “(95.0) %”, the “Cumulative % of isolates inhibited at MIC 0.06 μg/mL” value (Candida glabrata) was “(95.0) %” and the “Cumulative % of isolates inhibited at MIC 0.12 μg/mL” value (Candida glabrata) was “(95.0) %”. The “Cumulative % of isolates inhibited at MIC 0.25 μg/mL” value (Candida glabrata) was “(95.0) %”, the “Cumulative % of isolates inhibited at MIC 0.5 μg/mL” value (Candida glabrata) was “(95.0) %” and the “Cumulative % of isolates inhibited at MIC 1 μg/mL” value (Candida glabrata) was “(95.0) %”. For the same compound, the “Cumulative % of isolates inhibited at MIC 2 μg/mL” value (Candida glabrata) was “(98.0) %”, the “Cumulative % of isolates inhibited at MIC 4 μg/mL” value (Candida glabrata) was “(100.0) %” and the “Cumulative % of isolates inhibited at MIC ≤0.008 μg/mL” value (Candida glabrata) was “(1.0) %”. For the same compound, the “MIC according to CLSI method” value (Candida glabrata) was 4 µg/mL (≈ 3.15 µM), the “Number of isolates inhibited at MIC 0.015 μg/mL” value (Candida glabrata) was 73 and the “Number of isolates inhibited at MIC 0.03 μg/mL” value (Candida glabrata) was 21. For the same compound, the “Number of isolates inhibited at MIC 0.06 μg/mL” value (Candida glabrata) was 0, the “Number of isolates inhibited at MIC 0.12 μg/mL” value (Candida glabrata) was 0 and the “Number of isolates inhibited at MIC 0.25 μg/mL” value (Candida glabrata) was 0. The “Number of isolates inhibited at MIC 0.5 μg/mL” value (Candida glabrata) was 0, the “Number of isolates inhibited at MIC 1 μg/mL” value (Candida glabrata) was 0 and the “Number of isolates inhibited at MIC 2 μg/mL” value (Candida glabrata) was 3. For the same compound, the “Number of isolates inhibited at MIC 4 μg/mL” value (Candida glabrata) was 2, the “Number of isolates inhibited at MIC ≤0.008 μg/mL” value (Candida glabrata) was 1 and the MIC50 (Candida glabrata; Nakaseomyces glabratus, read-out: MIC50) was 0.015 µg/mL (≈ 0.0118 µM). It also gave an MIC90 (Candida glabrata; Nakaseomyces glabratus, read-out: MIC90) of 0.03 µg/mL (≈ 0.0236 µM), an MIC (Candida glabrata; Nakaseomyces glabratus, read-out: MIC according to CLSI method) of 2 µg/mL (≈ 1.57 µM) and an MIC (Candida glabrata; Nakaseomyces glabratus, read-out: MIC results) of 2 to 4 µg/mL (≈ 1.57 to 3.15 µM). The “Cumulative % of isolates inhibited at MIC 0.015 μg/mL” value (Candida tropicalis; 51 isolates) was “(31.4) %”, the “Cumulative % of isolates inhibited at MIC 0.03 μg/mL” value (Candida tropicalis; 51 isolates) was “(84.3) %” and the “Cumulative % of isolates inhibited at MIC 0.06 μg/mL” value (Candida tropicalis; 51 isolates) was “(100.0) %”. For the same compound, the “Cumulative % of isolates inhibited at MIC ≤0.008 μg/mL” value (Candida tropicalis; 51 isolates) was “(2.0) %”, the “Number of isolates inhibited at MIC 0.015 μg/mL” value (Candida tropicalis; 51 isolates) was 15 and the “Number of isolates inhibited at MIC 0.03 μg/mL” value (Candida tropicalis; 51 isolates) was 27. The “Number of isolates inhibited at MIC 0.06 μg/mL” value (Candida tropicalis; 51 isolates) was 8, the “Number of isolates inhibited at MIC ≤0.008 μg/mL” value (Candida tropicalis; 51 isolates) was 1 and the MIC50 (Candida tropicalis; Candida tropicalis) was 0.03 µg/mL (≈ 0.0236 µM). For the same compound, the MIC90 (Candida tropicalis; Candida tropicalis) was 0.06 µg/mL (≈ 0.0472 µM), the “Cumulative % of isolates inhibited at MIC 0.12 μg/mL” value (Candida orthopsilosis; 10 isolates) was “(20.0) %” and the “Cumulative % of isolates inhibited at MIC 0.25 μg/mL” value (Candida orthopsilosis; 10 isolates) was “(40.0) %”. The “Cumulative % of isolates inhibited at MIC 0.5 μg/mL” value (Candida orthopsilosis; 10 isolates) was “(70.0) %”, the “Cumulative % of isolates inhibited at MIC 1 μg/mL” value (Candida orthopsilosis; 10 isolates) was “(100.0) %” and the “Number of isolates inhibited at MIC 0.12 μg/mL” value (Candida orthopsilosis; 10 isolates) was 2. The “Number of isolates inhibited at MIC 0.25 μg/mL” value (Candida orthopsilosis; 10 isolates) was 2, the “Number of isolates inhibited at MIC 0.5 μg/mL” value (Candida orthopsilosis; 10 isolates) was 3 and the “Number of isolates inhibited at MIC 1 μg/mL” value (Candida orthopsilosis; 10 isolates) was 3. The MIC50 (Candida orthopsilosis; Lodderomyces orthopsilosis) was 0.5 µg/mL (≈ 0.394 µM), the MIC90 (Candida orthopsilosis; Lodderomyces orthopsilosis) was 1 µg/mL (≈ 0.787 µM) and the “Cumulative % of isolates inhibited at MIC >8 μg/mL” value ([1]; 19 isolates) was “(100.0) %”. The “Number of isolates inhibited at MIC >8 μg/mL” value ([1]; 19 isolates) was 19, the MIC50 ([1]; Cryptococcus neoformans) was 8 µg/mL (≈ 6.3 µM) and the MIC90 ([1]; Cryptococcus neoformans) was 8 µg/mL (≈ 6.3 µM). The “Cumulative % of isolates inhibited at MEC 0.015 μg/mL” value (Aspergillus fumigatus) was “(96.4) %”, the “Cumulative % of isolates inhibited at MEC 0.03 μg/mL” value (Aspergillus fumigatus) was “(100.0) %” and the “Cumulative % of isolates inhibited at MEC ≤0.008 μg/mL” value (Aspergillus fumigatus) was “(28.6) %”. The MEC50 (Aspergillus fumigatus) was “.015 µg/mL”, the MEC90 (Aspergillus fumigatus) was “.015 µg/mL” and the “Number of isolates inhibited at MEC 0.015 μg/mL” value (Aspergillus fumigatus) was 38. For the same compound, the “Number of isolates inhibited at MEC 0.03 μg/mL” value (Aspergillus fumigatus) was 2, the “Number of isolates inhibited at MEC ≤0.008 μg/mL” value (Aspergillus fumigatus) was 16 and the IC50 ([2]; IC50, DPL1002, WT) was 13.9 nM. The IC50 ([2]; IC50, glucan synthase, ATCC 90028, WT) was 14.2 nM, the IC50 ([2]; glucan synthase, DPL22, Fks1p S645P/S) was 193 nM and the IC50 [3] was 1400 nM. For the same compound, the IC50 [4] was 2010 nM, the IC50 ([5]; DPL50, WT) was 0.000447 µg/mL (≈ 0.000352 µM) and the “GS activity after treatment with a high dose” value ([5]; F659del mutant GS, 10,000 ng/mL) was “did not exhibit significant reductions in activity”. The “MIC median (range)” value (C. tropicalis; ER (4 isolates)) was 2.00 (1-4) mg/L and the “MIC median (range)” value (C. tropicalis; WT (15 isolates)) was 0.03 (0.03)^ mg/L.
